“And” between values parts separate entries of the source, which are not always exact repeats. Equal values may be shown once. “Also recorded” adds a separate entry of the source. Read-outs that look alike come from different tables or passages of the source.
Columns and labels:
[1] = system: A. flavus MAFF111229 strain
[2] = system: A. parasiticus NRRL2999 strain; format: cell-based, Aspergillus parasiticus
[3] = system: A. parasiticus NRRL2999 strain
[4] = system: A. flavus IFM47798 strain; test: Fungal growth (dry fungal weight) in liquid culture, Test Example 1; format: cell-based, Aspergillus flavus
[5] = system: A. flavus MAFF111229 strain; format: cell-based, Aspergillus flavus
[6] = system: A. flavus IFM47798 strain; format: cell-based, Aspergillus flavus; details: for Total AF Relative Value (%): 48 h, 28° C., untreated control = 100, mean ± SD, n = 4
[7] = system: A. flavus MAFF111229 strain; format: cell-based, Aspergillus flavus; details: untreated control = 100, mean ± SD, n = 4
[8] = alcohol 0.3 v/v %, 48 h, 28° C., untreated control = 100, mean ± SD, n = 4
[9] = alcohol 0.6 v/v %, 48 h, 28° C., untreated control = 100, mean ± SD, n = 4
[10] = alcohol 1 v/v %, 48 h, 28° C., untreated control = 100, mean ± SD, n = 4
[11] = alcohol 2 v/v %, 48 h, 28° C., untreated control = 100, mean ± SD, n = 4
[12] = alcohol 4 v/v %, 48 h, 28° C., untreated control = 100, mean ± SD, n = 4

Structure (SMILES) | Fungal Weight Relative Value (%) [1] | Fungal Weight Relative Value (%) [3] | Fungal Weight Relative Value (%) [4] | amount of aflatoxins produced [6] | Fungal Weight Relative Value (%) [4, 8] [%] | Fungal Weight Relative Value (%) [4, 9] [%] | Fungal Weight Relative Value (%) [4, 10] [%] | Fungal Weight Relative Value (%) [4, 11] [%] | Fungal Weight Relative Value (%) [4, 12] [%] | Total AF Relative Value (%) ([6]; alcohol 0.3 v/v %) | Total AF Relative Value (%) ([6]; alcohol 0.6 v/v %) | Total AF Relative Value (%) ([6]; alcohol 1 v/v %) | Total AF Relative Value (%) ([6]; alcohol 2 v/v %) | Total AF Relative Value (%) ([6]; alcohol 4 v/v %) | further results
CCCO [1-Propanol] | 104.5 ± 6.5% and 103.9 ± 8.8% | 87.4 ± 1.8% and 86.4 ± 2.8% | 102.9 ± 12.0% and 118.1 ± 5.4% |  |  |  |  |  |  |  |  |  |  |  | Total AF Relative Value (%) [2]: 58.7 ± 9.5 % and 47.5 ± 6.5 %
CCC(C)O (stereo not drawn) [2-Butanol] | 56.2 ± 7.3% and 48.9 ± 8.7% |  | 66.1 ± 5.4% and 70.2 ± 4.2% |  |  |  |  |  |  |  |  |  |  |  | Total AF Relative Value (%) [5]: 0.0 ± 0.0 %
CC(C)(C)O [2-Methyl-2-Propanol] |  |  |  | increase the amount of aflatoxins produced; also recorded: same tendencies as in the case of ethanol | 104.8 ± 7.9 | 101.0 ± 4.8 | 51.9 ± 15.5 | 0.0 ± 0.0 | 0.0 ± 0.0 |  |  |  |  |  | 
CC(C)O [2-Propanol] |  |  |  | increase the amount of aflatoxins produced; also recorded: same tendencies as in the case of ethanol | 126.2 ± 6.4 | 128.0 ± 11.6 | 103.7 ± 7.7 | 94.4 ± 8.3 | 0.0 ± 0.0 |  |  |  |  |  | 
CCO [Ethanol] |  |  |  | increase the amount of aflatoxins produced; also recorded: conversely increased |  |  |  |  |  | 197.1 ± 25.9 | 244.5 ± 13.2 | 222.4 ± 20.9 | 24.3 ± 10.5 | 0.0 ± 0.0 | aflatoxin production [6]: the aflatoxin production was accordingly inhibited; growth of A. flavus [4]: not inhibited; growth of A. flavus ([4]; concentration of 4 v/v % or higher): the growth of A. flavus was inhibited
CO [Methanol] | 123.6 ± 6.8% and 123.6 ± 10.4% and 112.8 ± 10.4% and 98.0 ± 4.6% and 101.4 ± 3.5% | 93.3 ± 11.2% and 92.0 ± 6.9% and 100.0 ± 8.5% and 102.1 ± 1.6% and 102.9 ± 3.7% |  |  | 103.7 ± 3.5 | 110.1 ± 6.7 | 128.4 ± 3.0 | 145.9 ± 11.4 | 103.7 ± 3.5 | 70.6 ± 12.1 | 63.4 ± 12.7 | 0.0 ± 0.0 | 0.0 ± 0.0 | 0.0 ± 0.0 | Total AF Relative Value (%) ([5]; corn kernels sprayed with alcohol 20 μL per 1 g of kernels, 28° C., one week, positive control = 100, mean ± SD, n = 3): 1.0 ± 1.3 %; Total AF Relative Value (%) ([2]; alcohol 0.3 v/v %, untreated control = 100, mean ± SD, n = 4): 86.3 ± 3.6 %; Total AF Relative Value (%) ([2]; alcohol 0.6 v/v %, untreated control = 100, mean ± SD, n = 4): 72.3 ± 1.9 %; Total AF Relative Value (%) ([2]; alcohol 1 v/v %, untreated control = 100, mean ± SD, n = 4): 31.1 ± 1.4 %; Total AF Relative Value (%) ([2]; alcohol 2 v/v %, untreated control = 100, mean ± SD, n = 4): 10.3 ± 1.3 %; Total AF Relative Value (%) ([2]; alcohol 4 v/v %, untreated control = 100, mean ± SD, n = 4): 3.4 ± 0.8 %; Total AF Relative Value (%) ([7]; alcohol 0.3 v/v %): 108.5 ± 5.8%; Total AF Relative Value (%) ([7]; alcohol 0.6 v/v %): 102.3 ± 5.0%; Total AF Relative Value (%) ([7]; alcohol 1 v/v %): 13.8 ± 0.8 %; Total AF Relative Value (%) ([7]; alcohol 2 v/v %): 0.0 ± 0.0 %; Total AF Relative Value (%) ([7]; alcohol 4 v/v %): 0.0 ± 0.0 %
